Laboratory results taken from US20100093811A1 (priority 2007, published 2010).
Like-named read-outs stand apart in the source and are kept apart here.

Experiments:
wild-type HIV-1 protease = wild-type HIV-1 protease (Human immunodeficiency virus type 1 group M subtype B, UniProt P04585); test: Assay for inhibition of microbial expressed HIV protease; type: biochemical
Method: Assay for Inhibition of Microbial Expressed HIV Protease
Inhibition studies of the reaction of the protease (which was expressed in Eschericia coli) with a peptide substrate [Val-Ser-Gln-Asn-(betanapthyl)Ala-Pro-Ile-Val]. The inhibitor is first preincubated with the enzyme in assay buffer (50 mM sodium acetate, pH 5.5, 100 mM NaCl, and 0.1% BSA) for 30 minutes at room temperature. Substrate is added to 440 micromolar in a total volume of 80 microliters containing 5 picomolar HIV-1 protease, and the reaction is incubated for 1 hour at 30° C. The reaction is quenched by addition of 120 microliters of 10% phosphoric acid, and product formation is determined after separation of product and substrate on a Vydac C18 column connected to an Alliance high performance liquid chromatography system (Waters Corporation). The extent of inhibition of the reaction is determined from the peak area of the products.

[1] = system: acute HIV infection of T-lymphoid cells; test: Assay for inhibition of HIV replication (spread assay); type: cell-based, HIV-1; conditions: Human immunodeficiency virus 1, T-lymphoid
Method: • Assay for Inhibition of HIV Replication
Assays for the inhibition of acute HIV infection of T-lymphoid cells were conducted in accordance with Vacca, J. P. et al., Proc. Natl. Acad. Sci. USA 1994, 91: 4096.

[2] = wild-type HIV-1 protease expressed in E. coli, peptide substrate, pH 5.5, read-out: Enzyme Inhibition - IC50

Row | Compound | IC50 (wild-type HIV-1 protease; [2]) | IC95 ([1]; read-out: Spread - IC95) | IC50 (wild-type HIV-1 protease) | IC95 ([1]; read-out: Spread - IC95 (nM))
1 | CC[C@@H](CCC[C@@H](CO)N(CCCF)S(=O)(=O)c1ccc(N)cc1)NC(=O)[C@@H](NC(=O)OC)C(c1ccccc1)c1ccccc1 [Example D15, N-{(1S,5S)-5-[[(4-aminophenyl)sulfonyl](3-fluoropropyl)amino]-1-ethyl-6-hydroxyhexyl}-Nα-(methoxycarbonyl)-β-phenyl-L-phenylalaninamide] | 0.268 nM | 39 nM | – | –
2 | COC(=O)N[C@H](C(=O)N[C@H](CCC[C@@H](CO)N(CCC(C)C)S(=O)(=O)c1ccc(N)c(F)c1)C(C)C)C(c1ccccc1)c1ccccc1 [Example D16, N-{(1R,5S)-5-[[(4-amino-3-fluorophenyl)sulfonyl](3-methylbutyl)amino]-6-hydroxy-1-isopropylhexyl}-Nα-(methoxycarbonyl)-β-phenyl-L-phenylalaninamide] | 0.329 nM | 152 nM | – | –
3 | CC[C@@H](CCC[C@@H](CO)N(CCC(C)C)S(=O)(=O)c1ccc(N)c(Br)c1)NC(=O)[C@@H](NC(=O)OC)C(c1ccccc1)c1ccccc1 [Example D17, N-{(1S,5S)-5-[[(4-amino-3-bromophenyl)sulfonyl](3-methylbutyl)amino]-1-ethyl-6-hydroxyhexyl}-Nα-(methoxycarbonyl)-β-phenyl-L-phenylalaninamide] | 0.38 nM | 154 nM | – | –
4 | COC(=O)N[C@H](C(=O)N[C@H](CCC[C@@H](CO)N(CCC(C)C)S(=O)(=O)c1ccc(N)cc1)C1CC1)C(c1ccccc1)c1ccccc1 [Example E1] | – | 11 nM | 0.03 nM | –
5 | COC(=O)N[C@H](C(=O)N[C@H](CCC[C@@H](CO)N(CCC(C)C)S(=O)(=O)c1ccc(CO)c(F)c1)C1CC1)C(c1ccc(F)cc1)c1ccc(F)cc1 [Example E2, N-{(1R,5S)-1-cyclopropyl-5-[{[3-fluoro-4-(hydroxymethyl)phenyl]sulfonyl}(3-methylbutyl)amino]-6-hydroxyhexyl}-4-fluoro-β-(4-fluorophenyl)-Nα-(methoxycarbonyl)-L-phenylalaninamide] | 0.017 nM | 39 nM | – | –
6 | COC(=O)N[C@H](C(=O)N[C@H](CCC[C@@H](CO)N(CCC(C)C)S(=O)(=O)c1ccc(N)c(F)c1)C1CC1)C(c1ccccc1)c1ccccc1 [Example E3, N-{(1R,5S)-5-[[(4-amino-3-fluorophenyl)sulfonyl](3-methylbutyl)amino]-1-cyclopropyl-6-hydroxyhexyl}-Nα-(methoxycarbonyl)-β-phenyl-L-phenylalaninamide] | 0.057 nM | 11 nM | – | –
7 | COC(=O)N[C@H](C(=O)N[C@H](CCC[C@@H](CO)N(CCC(C)C)S(=O)(=O)c1ccc(Cl)cc1)C1CC1)C(c1ccccc1)c1ccccc1 [Example E4, N-{(1R,5S)-5-[[(4-chlorophenyl)sulfonyl](3-methylbutyl)amino]-1-cyclopropyl-6-hydroxyhexyl}-Nα-(methoxycarbonyl)-β-phenyl-L-phenylalaninamide] | 0.201 nM | 22 nM | – | –
8 | COC(=O)N[C@H](C(=O)N[C@H](CCC[C@@H](CO)N(CCC(C)C)S(=O)(=O)c1ccc(C(C)=O)cc1)C1CC1)C(c1ccc(F)cc1)c1ccc(F)cc1 [Example E5, N-{(1R,5S)-5-[[(4-acetylphenyl)sulfonyl](3-methylbutyl)amino]-1-cyclopropyl-6-hydroxyhexyl}-4-fluoro-β-(4-fluorophenyl)-Nα-(methoxycarbonyl)-L-phenylalaninamide] | 0.053 nM | 47 nM | – | –
9 | COC(=O)N[C@H](C(=O)N[C@H](CCC[C@@H](CO)N(CC(C)C)S(=O)(=O)c1ccc2ncsc2c1)C1CC1)C(c1ccccc1)c1ccccc1 [Example E6, N-{(1R,5S)-5-[(1,3-benzothiazol-6-ylsulfonyl)(isobutyl)amino]-1-cyclopropyl-6-hydroxyhexyl}-Nα-(methoxycarbonyl)-β-phenyl-L-phenylalaninamide] | 0.352 nM | 27 nM | – | –
10 | COC(=O)N[C@H](C(=O)N[C@H](CCC[C@@H](CO)N(CCC(C)C)S(=O)(=O)c1ccc(N)cc1)C1CC1)C(c1ccc(F)cc1)c1ccc(F)cc1 [Example E7, N-{(1R,5S)-5-[[(4-aminophenyl)sulfonyl](3-methylbutyl)amino]-1-cyclopropyl-6-hydroxyhexyl}-4-fluoro-β-(4-fluorophenyl)-Nα-(methoxycarbonyl)-L-phenylalaninamide] | 0.066 nM | 39 nM | – | –
11 | COC(=O)N[C@@H](Cc1ccccc1Cl)C(=O)N[C@H](CCC[C@@H](CO)N(CCC(C)C)S(=O)(=O)c1ccc2ncsc2c1)C1CC1 [Example E8, N-{(1R,5S)-5-[(1,3-benzothiazol-6-ylsulfonyl)(3-methylbutyl)amino]-1-cyclopropyl-6-hydroxyhexyl}-2-chloro-Nα-(methoxycarbonyl)-L-phenylalaninamide] | 1.4 nM | 195 nM | – | –
12 | COC(=O)N[C@@H](Cc1cccc2ccccc12)C(=O)N[C@H](CCC[C@@H](CO)N(CCC(C)C)S(=O)(=O)c1ccc(N)cc1)C1CC1 [Example E9, methyl [(1S)-2-({(1R,5S)-5-[[(4-aminophenyl)sulfonyl](3-methylbutyl)amino]-1-cyclopropyl-6-hydroxyhexyl}amino)-1-(1-naphthylmethyl)-2-oxoethyl]carbamate] | 0.354 nM | 117 nM | – | –
13 | CCCN([C@H](CO)CCC[C@H](C)NC(=O)[C@@H](NC(=O)OC)C(c1ccccc1)c1ccccc1)S(=O)(=O)c1ccc(N)cc1 [Example F2, N-{(1S,5S)-5-[[(4-aminophenyl)sulfonyl](propyl)amino]-6-hydroxy-1-methylhexyl}-Nα-(methoxycarbonyl)-β-phenyl-L-phenylalaninamide] | 0.028 nM | – | – | 23 nM
14 | CC[C@@H](CCC[C@@H](CO)N(CCC(C)C)S(=O)(=O)c1ccc(N)cc1)NC(=O)[C@H](Cc1ccccc1Br)NC(=O)OC [Example F3, N-{(1S,5S)-5-[[(4-aminophenyl)sulfonyl](3-methylbutyl)amino]-1-ethyl-6-hydroxyhexyl}-2-bromo-Nα-(methoxycarbonyl)-L-phenylalaninamide] | 0.196 nM | 25 nM | – | –
15 | COC(=O)N[C@H](C(=O)N[C@@H](C)CCC[C@@H](CO)N(CCCF)S(=O)(=O)c1ccc(N)cc1)C(c1ccccc1)c1ccccc1 [Example F4, N-{(1S,5S)-5-[[(4-aminophenyl)sulfonyl](3-fluoropropyl)amino]-6-hydroxy-1-methylhexyl}-Nα-(methoxycarbonyl)-β-phenyl-L-phenylalaninamide] | 0.055 nM | 65 nM | – | –
16 | CCCN([C@H](CO)CCC[C@H](CC)NC(=O)[C@@H](NC(=O)OC)C(c1ccccc1)c1ccccc1)S(=O)(=O)c1ccc(N)cc1 [Example F5, N-{(1S,5S)-5-[[(4-aminophenyl)sulfonyl](propyl)amino]-1-ethyl-6-hydroxyhexyl}-Nα-(methoxycarbonyl)-β-phenyl-L-phenylalaninamide] | 0.163 nM | 54 nM | – | –
17 | CC[C@@H](CCC[C@@H](CO)N(CCC(C)C)S(=O)(=O)c1ccc(N)cc1)NC(=O)[C@@H](NC(=O)OC)C1c2ccccc2C=Cc2ccccc21 [Example F6, methyl [2-({(1S,5S)-5-[[(4-aminophenyl)sulfonyl](3-methylbutyl)amino]-1-ethyl-6-hydroxyhexyl}amino)-1-(5H-dibenzo[a,d][7]annulen-5-yl)-2-oxoethyl]carbamate] | 0.01 nM | 10 nM | – | –
18 | CCCN([C@H](CO)CCC[C@H](CC)NC(=O)[C@H](Cc1ccccc1Br)NC(=O)OC)S(=O)(=O)c1ccc(N)cc1 [Example F7, N-{(1S,5S)-5-[[(4-aminophenyl)sulfonyl](propyl)amino]-1-ethyl-6-hydroxyhexyl}-2-bromo-Nα-(methoxycarbonyl)-L-phenylalaninamide] | 0.862 nM | 251 nM | – | –
19 | CCCN([C@H](CO)CCC[C@H](CC)NC(=O)[C@H](Cc1ccccc1Cl)NC(=O)OC)S(=O)(=O)c1ccc(N)cc1 [Example F8, N-{(1S,5S)-5-[[(4-aminophenyl)sulfonyl](propyl)amino]-1-ethyl-6-hydroxyhexyl}-2-chloro-Nα-(methoxycarbonyl)-L-phenylalaninamide] | 1.45 nM | 249 nM | – | –
20 | CC[C@@H](CCC[C@@H](CO)N(CCC(C)C)S(=O)(=O)c1ccc(N)cc1)NC(=O)[C@@]1(NC(=O)OC(C)(C)C)C[C@@H]1c1ccccc1 [Example F9, tert-butyl {(1R,2R)-1-[({(1S,5S)-5-[[(4-aminophenyl)sulfonyl](3-methylbutyl)amino]-1-ethyl-6-hydroxyhexyl}amino)carbonyl]-2-phenylcyclopropyl}carbamate] | 0.064 nM | 76 nM | – | –
21 | CC[C@@H](CCC[C@@H](CO)N(CCC(C)C)S(=O)(=O)c1ccc(N)cc1)NC(=O)[C@@H](NC(=O)OCc1ccncc1)C(c1ccccc1)c1ccccc1 [Example F10, N-{(1S,55)-5-[[(4-aminophenyl)sulfonyl](3-methylbutyl)amino]-1-ethyl-6-hydroxyhexyl}-β-phenyl-Nα-[(pyridin-4-ylmethoxy)carbonyl]-L-phenylalaninamide] | 0.01 nM | 17 nM | – | –
22 | CC[C@@H](CCC[C@@H](CO)N(CCC(C)C)S(=O)(=O)c1ccc(N)cc1)NC(=O)[C@@H](NC(=O)OC)C1c2ccccc2Oc2ccccc21 [Example F11, methyl [2-({(1S,5S)-5-[[(4-aminophenyl)sulfonyl](3-methylbutyl)amino]-1-ethyl-6-hydroxyhexyl}amino)-2-oxo-1-(9H-xanthen-9-yl)ethyl]carbamate] | 0.021 nM | 38 nM | – | –
